Experiment [1] has as its target T1, human GPCR sphingosine 1-phosphate receptor 5 (S1PR5) (Homo sapiens, UniProt Q9H228).
T1 construct: host or cells: CHO
In words: S1PR5 selectivity assay (Ca2+ flux, antagonist, S1PR5 specific agonist trigger). It is filed as cell-based. To be noted: S1P5 antagonist EC50, CHO cells overexpressing human S1PR5 and Gq protein. The method, then: (§1) After readout of the agonist activity, the plates are incubated for 15 min at 37° C. and 5% CO2. Then, cells are stimulated with 10 μL Sphingosine-1-Phosphate (S1P) (Avanti Polar lipids-860492P) at its EC80 concentration. Intracellular Ca^2+ changes are immediately measured by reading fluorescence during 3 min (FDSS/μCELL reader). The ratio of the maximal fluorescence over the background fluorescence before compound injection is used to determine compound response.
(§2) For EC50 determination, a 10 point dilution series of compounds starting from 23.3 μM and 20 μM highest final concentration for agonist and antagonist respectively, ⅓ dilution was performed.
(§3) The obtained ratio's for agonist and antagonist readout were normalized versus vehicle and EC100 of S1P as controls for agonist mode and versus vehicle and EC80 of S1P for antagonist mode. From these normalized data EC50 of the compounds are derived.
(§4) To evaluate the selectivity of the compounds for S1PR2 over S1PR1 and S1PR5, a similar assay set up as described above for the S1PR2 calcium flux assays was performed: CHO cells stably overexpressing human GPCR sphingosine 1-phosphate receptor 1 and Gq protein (Euroscreen, FAST-0197A) or overexpressing human GPCR sphingosine 1-phosphate receptor 5 and Gq protein were used (Perkin Elmer, ES-593-A). In case of the S1PR5 assay triggering was done with an S1PR5 specific agonist instead of with S1P (Hobson et al., 2015).
(Calcium flux is commonly read through the fluorescence of an indicator in the cells.)

Experiment [2] addresses T2, human GPCR sphingosine 1-phosphate receptor 2 (S1PR2) (Homo sapiens, UniProt O95136).
T2 construct: host or cells: CHO
Kind of experiment: S1P2 antagonist assay (Ca2+ flux, S1P at EC80). To be noted: CHO-S1PR2 cells, highest concentration 20 μM. The format is cell-based. The method, then: Triggering of S1PR2 by administration of Sphingosine-1-phosphate leads to a transient increase in intracellular Ca^2+. The Ca^2+ flux assays are measuring the release of Ca^2+ intracellularly by use of a Ca^2+ sensitive fluorescent dye. The assay is firstly run in agonist mode (incubation of compounds alone) to ensure that the Ca^2+ released measured is not caused by the test compound having an agonistic effect. Then the assay is continued in antagonist mode (Sphingosine-1-Phosphate added to incubated medium containing the test compounds).
CHO cells stably overexpressing human GPCR sphingosine 1-phosphate receptor 2 (CHO—S1PR2 Perkin Elmer; ES-594-A) are seeded from a frozen stock in 384 wells sterile microplates (50 μL; 7,500 cells/well) and are incubated overnight at 37° C. and 5% CO2. The next day cells are washed twice with starvation medium (F-12 Ham's medium containing 0.1% BSA (Fatty acid free: FAF)) and left in […] starvation medium for 1 h at 37° C., 5% CO2. After this starvation cells are incubated with […] buffer containing the Ca^2+-sensitive fluorescent dye (0.5 mg Fluo8+125 mg Allura Red in 100 ml of 1% DMSO, in HBSS+20 mM Hepes+5 mM probenecid). The cells are incubated for an additional 1 hour after which 10 μL compounds, diluted in HBSS buffer with 20 mM Hepes and 0.1% BSA (FAF), are added to the cells and intracellular Ca^2+ changes are immediately measured by reading fluorescence during 3 min (FDSS/μCELL reader). The ratio of the maximal fluorescence over the background fluorescence before compound injection is used to determine compound response.
as §1, §2, §3

The target of experiment [3] is T3, S1PR2 (Homo sapiens, UniProt O95136).
T3 construct: expressed in transfected cells
T3 sequence (O95136 whole entry): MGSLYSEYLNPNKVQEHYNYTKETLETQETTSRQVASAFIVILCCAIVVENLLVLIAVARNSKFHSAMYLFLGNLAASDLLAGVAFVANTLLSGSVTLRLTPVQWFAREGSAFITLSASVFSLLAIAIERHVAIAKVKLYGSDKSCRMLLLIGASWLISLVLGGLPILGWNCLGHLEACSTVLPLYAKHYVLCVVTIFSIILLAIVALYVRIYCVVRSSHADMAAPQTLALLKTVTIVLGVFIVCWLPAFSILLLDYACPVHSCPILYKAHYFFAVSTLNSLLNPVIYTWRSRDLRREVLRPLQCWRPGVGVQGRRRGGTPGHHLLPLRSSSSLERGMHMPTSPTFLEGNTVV
Kind of experiment: GTP-γS binding assay ([35S]GTPγS, S1P at EC80, S1PR2 membranes). The format is biochemical. The note with it: membranes from stable cell line over expressing S1PR2, read-out: S1PR2 EC. On the procedure:
The following assay can be used for determination of S1PR2 activation. The [^35S] GTPγS assay measures the level of G protein activation following agonist occupation of a GPCR, by determining the binding of the non-hydrolysable analog [^35S] GTPγS to Gα subunits.
The assay is performed in a 96 well plate where the following reagents are added. First 50 μL compound is added into the assay plate, followed by addition of 20 μL S1P at EC80 concentration (concentration which gives 80% of the activity of S1PR2). Then, 30 μL of a mixture consisting of membranes-GTPγS-SpA beads is added [mixture consists of 2.5 μg/well membranes derived from stable cell line over expressing S1PR2 (membranes are pre-incubated with 1 μM GDP for 15 min at 4° C.), 0.1 nM [35S]GTPγS (Perkin Elmer, NEG030) and 0.5 mg/well PVT-WGA SpA beads (Perkin Elmer, RPNQ0001)]. All components are diluted in assay buffer containing 20 mM Tris pH 7.5; 10 mM MgCl2; 100 mM NaCl; 0.1% BSA FAF; 50 ug/ml saponin. After an incubation for 4 h at room temperature, plates are centrifuged at 2000 rpm during 20 min. Plates are read on a Topcount reader (Perkin Elmer) immediately after centrifugation (readout time, 1 min/well).
Background: GTPγS resists hydrolysis and so accumulates on activated G proteins.

Experiment [4] concerns the target T4, human GPCR sphingosine 1-phosphate receptor 1 (S1PR1) (Homo sapiens, UniProt P21453).
T4 construct: host or cells: CHO
Kind of experiment: S1PR1 selectivity assay (Ca2+ flux, antagonist). The format is cell-based. To be noted: S1P1 antagonist EC50, CHO cells overexpressing human S1PR1 and Gq protein. On the procedure:
as §1, §2, §3, §4

Results on 15 compounds are retold here after US20190388421A1, “NOVEL COMPOUNDS AND PHARMACEUTICAL COMPOSITIONS THEREOF FOR THE TREATMENT OF FIBROSIS” (Galapagos NV, priority 2016, published 2019).

T1 sequence (Q9H228 whole entry): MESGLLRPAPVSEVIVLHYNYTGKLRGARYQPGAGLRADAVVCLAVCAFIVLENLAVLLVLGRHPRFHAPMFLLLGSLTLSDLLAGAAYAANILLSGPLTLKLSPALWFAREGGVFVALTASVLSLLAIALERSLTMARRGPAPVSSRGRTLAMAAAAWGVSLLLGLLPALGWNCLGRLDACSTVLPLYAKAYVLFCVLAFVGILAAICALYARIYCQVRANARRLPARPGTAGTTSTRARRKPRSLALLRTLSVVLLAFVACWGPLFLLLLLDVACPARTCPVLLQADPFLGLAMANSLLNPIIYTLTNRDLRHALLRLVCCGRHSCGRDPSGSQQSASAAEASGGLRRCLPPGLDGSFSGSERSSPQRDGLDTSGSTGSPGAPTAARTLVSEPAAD
T2 sequence (O95136 whole entry): as the sequence (O95136 whole entry) above
T4 sequence (P21453 whole entry): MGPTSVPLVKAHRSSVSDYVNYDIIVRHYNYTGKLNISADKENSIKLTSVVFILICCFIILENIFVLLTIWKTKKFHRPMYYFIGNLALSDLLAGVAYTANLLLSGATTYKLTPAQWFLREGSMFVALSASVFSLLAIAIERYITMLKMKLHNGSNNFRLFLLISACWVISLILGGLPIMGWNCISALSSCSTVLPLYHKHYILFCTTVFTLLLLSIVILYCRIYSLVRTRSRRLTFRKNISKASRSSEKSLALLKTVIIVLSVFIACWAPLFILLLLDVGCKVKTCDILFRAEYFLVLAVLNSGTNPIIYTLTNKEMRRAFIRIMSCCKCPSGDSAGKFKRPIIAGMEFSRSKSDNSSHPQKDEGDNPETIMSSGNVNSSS

Regarding `Cc1cc(CNC(=O)Nc2cnc(OCC(F)F)c(Cl)c2)nnc1-c1cn(C)nc1C(F)(F)F` [Compound 9, 1-[5-chloro-6-(2,2-difluoroethoxy)-3-pyridyl]-3-[[5-methyl-6-[1-methyl-3-(trifluoromethyl)pyrazol-4-yl]pyridazin-3-yl]methyl]urea], the EC50 is no less than 19.8 µM in experiment [1], 23.7 nM in experiment [2], 532 nM in experiment [3] and no less than 19.8 µM in experiment [4].

Regarding `CCOc1nc(C#N)cc(NC(=O)NCc2cc(C)c(-c3cn(C)nc3C(F)(F)F)nn2)c1C1CC1` [Compound 58, 1-(6-cyano-3-cyclopropyl-2-ethoxy-4-pyridyl)-3-[[5-methyl-6-[1-methyl-3-(trifluoromethyl)pyrazol-4-yl]pyridazin-3-yl]methyl]urea], the EC50 in experiment [1] is no less than 19.8 µM; in experiment [2], 69.6 nM; in experiment [3] it was 223 nM; in experiment [4], no less than 19.8 µM.

In the case of `Cn1cc(-c2nnc(CNC(=O)Nc3cc(Cl)nc(OCC(F)F)c3)cc2C2CC2)c(C(F)(F)F)n1` [Compound 61, 1-[2-chloro-6-(2,2-difluoroethoxy)-4-pyridyl]-3-[[5-cyclopropyl-6-[1-methyl-3-(trifluoromethyl)pyrazol-4-yl]pyridazin-3-yl]methyl]urea], the EC50 in experiment [1] worked out at 4.04 µM; in experiment [2] it was 14 nM; in experiment [3], 193 nM; in experiment [4] it was 0.919 µM.

Regarding `CCOc1cc(NC(=O)NCc2cc(C)c(-c3cn(C)nc3C(F)(F)F)nn2)cc(C2CC2)n1` [Compound 22, 1-(2-cyclopropyl-6-ethoxy-4-pyridyl)-3-[[5-methyl-6-[1-methyl-3-(trifluoromethyl)pyrazol-4-yl]pyridazin-3-yl]methyl]urea], the EC50 in experiment [1] was no less than 19.8 µM; in experiment [2], 17.3 nM; in experiment [3], 86 nM; in experiment [4], 6.61 µM.

As for `COCCOc1cc(NC(=O)NCc2cc(C)c(-c3cn(C)nc3C(F)(F)F)nn2)cc(C(F)(F)F)n1` [Compound 25, 1-[2-(2-methoxyethoxy)-6-(trifluoromethyl)-4-pyridyl]-3-[[5-methyl-6-[1-methyl-3-(trifluoromethyl)pyrazol-4-yl]pyridazin-3-yl]methyl]urea], the EC50 in experiment [1] was no less than 19.8 µM; in experiment [2] it was 792 nM; in experiment [3], 2030 nM; in experiment [4], no less than 19.8 µM.

On to `CCOc1cc(NC(=O)NCc2cc(C)c(-c3cn(COC)nc3C(F)(F)F)nn2)cc(Cl)n1` [Compound 15], for which the EC50 in experiment [1] is no less than 19.8 µM; in experiment [2] it was 9.2 nM; in experiment [3] it was 91.6 nM; in experiment [4], 6.61 µM.

`Cn1cc(-c2nnc(CNC(=O)Nc3cc(Cl)nc(OCC(F)F)c3)cc2N2CCOCC2)c(C(F)(F)F)n1` [Compound 62, 1-[2-chloro-6-(2,2-difluoroethoxy)-4-pyridyl]-3-[[6-[1-methyl-3-(trifluoromethyl)pyrazol-4-yl]-5-morpholino-pyridazin-3-yl]methyl]urea]: the EC50 in experiment [1] amounted to 11 µM; in experiment [2] it was 3130 nM; in experiment [3] it was 2370 nM; in experiment [4], 0.345 µM.

As to `Cc1cc(CNC(=O)Nc2cnc(OCC(F)F)c(C(F)(F)F)c2)nnc1-c1cn(C)nc1C(F)(F)F` [Compound 7, 1-[6-(2,2-difluoroethoxy)-5-(trifluoromethyl)-3-pyridyl]-3-[[5-methyl-6-[1-methyl-3-(trifluoromethyl)pyrazol-4-yl]pyridazin-3-yl]methyl]urea], the EC50 was no less than 19.8 µM in experiment [1], 17.8 nM in experiment [2], 330 nM in experiment [3] and no less than 19.8 µM in experiment [4].

Regarding `Cc1cc(CNC(=O)Nc2ccnc(C(F)(F)F)c2)nnc1-c1cn(C)nc1C(F)(F)F` [Compound 43, 1-[[5-methyl-6-[1-methyl-3-(trifluoromethyl)pyrazol-4-yl]pyridazin-3-yl]methyl]-3-[2-(trifluoromethyl)-4-pyridyl]urea], the EC50 was no less than 19.8 µM in experiment [1], 6030 nM in experiment [2], 4650 nM in experiment [3] and no less than 19.8 µM in experiment [4].

As to `COCCOc1cc(NC(=O)NCc2cc(C)c(-c3cn(C)nc3C(F)(F)F)nn2)cc(Cl)n1` [Compound 27, 1-[2-chloro-6-(2-methoxyethoxy)-4-pyridyl]-3-[[5-methyl-6-[1-methyl-3-(trifluoromethyl)pyrazol-4-yl]pyridazin-3-yl]methyl]urea], the EC50 is no less than 19.8 µM in experiment [1], 414 nM in experiment [2], 641 nM in experiment [3] and no less than 19.8 µM in experiment [4].

Take `Cc1cn(-c2nnc(CNC(=O)Nc3cc(Cl)nc(OCC(F)F)c3)cc2C)c(C)n1` [Compound 70]: the EC50 in experiment [1] was no less than 19.8 µM; in experiment [2], 904 nM; in experiment [3] it was 904 nM; in experiment [4] it was no less than 19.8 µM.

Take `Cc1cc(CNC(=O)Nc2cc(OCC3COCCO3)nc(C(F)(F)F)c2)nnc1-c1cn(C)nc1C(F)(F)F` (stereo not drawn) [Compound 37, 1-[2-(1,4-dioxan-2-ylmethoxy)-6-(trifluoromethyl)4-pyridyl]-3-[[5-methyl-6-[1-methyl-3-(trifluoromethyl)pyrazol-4-yl]pyridazin-3-yl]methyl]urea]: the EC50 in experiment [1] is no less than 19.8 µM; in experiment [2] it was 5430 nM; in experiment [3], 9580 nM; in experiment [4] it was no less than 19.8 µM.

Regarding `Cc1cc(CNC(=O)Nc2cc(Cl)nc(OCC(F)F)c2)nnc1-c1cn(C)nc1C(F)(F)F` [Compound 17, 1-[2-chloro-6-(2,2-difluoroethoxy)-4-pyridyl]-3-[[5-methyl-6-[1-methyl-3-(trifluoromethyl)pyrazol-4-yl]pyridazin-3-yl]methyl]urea], the EC50 in experiment [1] worked out at 6.61 µM; in experiment [2] it was 8.6 nM; in experiment [3], 36.1 nM; in experiment [4], 4.94 µM.

For `CCOc1ncc(NC(=O)NCc2cc(C)c(-c3cn(C)nc3C(F)(F)F)nn2)cc1C(F)(F)F` [Compound 10, 1-[6-ethoxy-5(trifluoromethyl)-3-pyridyl]-3-[[5-methyl-6-[1-methyl-3-(trifluoromethyl)pyrazol-4-yl]pyridazin-3-yl]methyl]urea], the EC50 in experiment [1] was no less than 19.8 µM; in experiment [2], 15 nM; in experiment [3], 281 nM; in experiment [4] it was no less than 19.8 µM.

In the case of `Cc1cc(CNC(=O)Nc2cc(OCC(C)(F)F)nc(C(F)(F)F)c2)nnc1-c1cn(C)nc1C(F)(F)F` [Compound 34, 1-[2-(2,2-difluoropropoxy)-6-(trifluoromethyl)-4-pyridyl]-3-[[5-methyl-6-[1-methyl-3-(trifluoromethyl)pyrazol-4-yl]pyridazin-3-yl]methyl]urea], the EC50 in experiment [1] came out at 6.61 µM; in experiment [2] it was 65.8 nM; in experiment [3], 408 nM; in experiment [4], 2.02 µM.
